PMC9318686, “Identification of NAPRT Inhibitors with Anti-Cancer Properties by In Silico Drug Discovery” (Pharmaceuticals, 2022)

Target: T1, recombinant human NAPRT (nicotinic acid phosphoribosyltransferase) (Homo sapiens, UniProt Q6XQN6)
T1 construct: dimer
T1 sequence (Q6XQN6 1-538): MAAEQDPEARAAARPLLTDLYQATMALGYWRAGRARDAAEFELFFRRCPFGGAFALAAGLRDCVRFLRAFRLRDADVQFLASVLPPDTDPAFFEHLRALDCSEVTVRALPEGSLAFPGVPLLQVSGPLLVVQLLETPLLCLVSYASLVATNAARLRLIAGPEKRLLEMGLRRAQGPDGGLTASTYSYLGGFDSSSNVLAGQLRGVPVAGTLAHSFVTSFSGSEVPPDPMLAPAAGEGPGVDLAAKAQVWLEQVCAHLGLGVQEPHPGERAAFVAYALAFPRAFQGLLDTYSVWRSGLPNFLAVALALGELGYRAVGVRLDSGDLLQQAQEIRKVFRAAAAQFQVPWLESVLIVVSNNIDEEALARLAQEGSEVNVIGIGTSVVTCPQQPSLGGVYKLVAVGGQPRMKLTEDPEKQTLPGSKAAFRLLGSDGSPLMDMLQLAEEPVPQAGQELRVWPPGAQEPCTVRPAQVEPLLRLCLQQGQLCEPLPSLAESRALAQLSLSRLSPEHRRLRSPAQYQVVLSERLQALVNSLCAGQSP
Assay: HPLC of NAMN formation, Michaelis-Menten fit
Format: biochemical
Excerpt: HPLC of NAMN formation, Michaelis-Menten fit on recombinant human NAPRT (nicotinic acid phosphoribosyltransferase)

Compound | Ki
O=C(N[C@@H](C(=O)c1ccccc1)n1cnccc1=O)c1ccccc1 [compound 1] | 2280 µM
O=C(O)c1cnccc1O [compound 8] | 308 µM
O=C(O)c1cnsn1 [compound 19] | 295 µM
